{"source": "paper PMC10495264", "about": "(Nature Cell Biology, 2023)", "key": {"[1]": {"tested_on": "Mal-CoA levels", "assay": "fapR/fapOp-yeGFP Mal-CoA reporter system, GFP immunoblot", "type": "cell-based, Saccharomyces cerevisiae", "conditions": "yeast, untreated = 1, n = 4, Fig. 2b"}, "[2]": {"tested_on": "total protein malonylation", "assay": "Total protein malonylation (Mal-K immunoblot) in HEK293FT/HEK293T cells", "type": "cell-based, human", "protocol": "For standard SDS–PAGE and immunoblotting experiments, cells from a well of a 12-well plate were lysed in 250 μl of ice-cold Triton lysis buffer (50 mM Tris pH 7.5, 1% Triton X-100, 150 mM NaCl, 50 mM NaF, 2 mM Na-vanadate and 0.011 g ml^−1 β-glycerophosphate) supplemented with 1×PhosSTOP phosphatase inhibitors (cat. no. 4906837001, Roche) and 1×cOmplete protease inhibitors (cat. no. 11836153001, Roche) for 10 min on ice. The samples were clarified by centrifugation (20,000g, 15 min, 4 °C) and the supernatants were boiled in 1×SDS sample buffer (5×SDS sample buffer: 350 mM Tris–HCl pH 6.8, 30% glycerol, 600 mM DTT, 12.8% SDS and 0.12% bromophenol blue). The band intensities were quantified using the ImageJ software."}, "[3]": {"tested_on": "mTOR and FASN malonylation", "assay": "Malonylation of immunopurified mTOR and FASN (anti-Mal-K) from HEK293FT cells", "type": "cell-based, human", "protocol": "Protein malonylation was assayed by immunoblotting using a Mal-K-specific antibody."}, "[4]": {"target": "T1, mTORC1 (Homo sapiens, UniProt P42345)", "T1 construct": "endogenous mTORC1 complexes were purified from HEK293FT cells; endogenous in cells; host or cells: HEK293FT (immunoprecipitation of endogenous mTOR); the 4E-BP1 substrate was made in E. coli BL21 RP", "assay": "Mammalian mTORC1 kinase activity assays (IVK, 4E-BP1 substrate)", "type": "biochemical", "procedure": "Following the last wash step with CHAPS IP wash buffer, the beads were washed once with kinase wash buffer (25 mM HEPES pH 7.4 and 20 mM KCl) and excess liquid was removed using a Hamilton syringe—the final bead volume was approximately 10 μl. Kinase reactions were prepared by adding 10 μl of 3×kinase assay buffer (75 mM HEPES KOH pH 7.4, 60 mM KCl and 30 mM MgCl2) to the beads. […] The reactions were incubated at 30 °C for 30 min, and stopped by the addition of one volume of 2×SDS loading buffer and boiling (5 min, 95 °C). […] Signals were quantified using the gel analysis tool of ImageJ and are shown as the phospho-4E-BP1^T37/46/4E-BP1 ratio."}}}
{"molecule": "C/C=C/C/C=C/CCC(=O)[C@H]1O[C@H]1C(N)=O", "note": "[cerulenin]", "values": [{"measurement": "GFP/Adh1 (relative Mal-CoA levels), Mean", "setting": "[1]; 20 μM cerulenin 2h", "value": 2.242}, {"measurement": "GFP/Adh1 (relative Mal-CoA levels), Mean", "setting": "[1]; 20 μM cerulenin 3h", "value": 5.039}, {"measurement": "GFP/Adh1 (relative Mal-CoA levels), Mean", "setting": "[1]; 20 μM cerulenin 4h", "value": 7.957}, {"measurement": "Mal-K/Tubulin, Mean", "setting": "[2]; ED Fig. 6c, relative to Luc", "value": 1.769}, {"measurement": "total protein malonylation (Mal-K immunoblot)", "setting": "[2]; HEK293FT cells, cerulenin treatment", "value": "detectable increase"}, {"measurement": "lysine malonylation of immunopurified human FASN", "setting": "[3]; cerulenin-treated (50 μM, 4 h) vs control", "value": "malonylation increasing further"}, {"measurement": "malonylation of immunopurified human mTOR", "setting": "[3]; control or cerulenin-treated (50 μM, 4 h)", "value": "unable to detect malonylation"}]}
{"molecule": "CC(C)(COP(=O)(O)OP(=O)(O)OCC1OC(n2cnc3c(N)ncnc32)C(O)C1OP(=O)(O)O)C(O)C(=O)NCCC(=O)NCCSC(=O)CC(=O)O", "note": "(stereo not shown) [Mal-CoA, malonyl-CoA]", "values": [{"measurement": "IC50", "setting": "[4]", "value": 230, "unit": "µM"}, {"measurement": "In vitro mTORC1 assay, p-4E-BP1(T37/46)/4E-BP1, Mean", "setting": "[4]; Fig. 8f, compound 0.01 mM, relative to 0 mM", "value": 0.741}, {"measurement": "In vitro mTORC1 assay, p-4E-BP1(T37/46)/4E-BP1, Mean", "setting": "[4]; Fig. 8f, compound 0.05 mM, relative to 0 mM", "value": 0.7667}, {"measurement": "In vitro mTORC1 assay, p-4E-BP1(T37/46)/4E-BP1, Mean", "setting": "[4]; Fig. 8f, compound 0.1 mM, relative to 0 mM", "value": 0.821}, {"measurement": "In vitro mTORC1 assay, p-4E-BP1(T37/46)/4E-BP1, Mean", "setting": "[4]; Fig. 8f, compound 0.5 mM, relative to 0 mM", "value": 0.5457}, {"measurement": "In vitro mTORC1 assay, p-4E-BP1(T37/46)/4E-BP1, Mean", "setting": "[4]; Fig. 8f, compound 1 mM, relative to 0 mM", "value": 0.5376}, {"measurement": "In vitro mTORC1 assay, p-4E-BP1(T37/46)/4E-BP1, Mean", "setting": "[4]; Fig. 8f, compound 2.5 mM, relative to 0 mM", "value": 0.4196}, {"measurement": "In vitro mTORC1 assay, p-4E-BP1(T37/46)/4E-BP1, Mean", "setting": "[4]; Fig. 8f, compound 5 mM, relative to 0 mM", "value": 0.4175}, {"measurement": "In vitro mTORC1 assay, p-4E-BP1(T37/46)/4E-BP1, Mean", "setting": "[4]; Fig. 8j, Mal-CoA 2 mM, ATP 0 uM, relative to control at 500 uM ATP", "value": 0.1107}, {"measurement": "In vitro mTORC1 assay, p-4E-BP1(T37/46)/4E-BP1, Mean", "setting": "[4]; Fig. 8j, Mal-CoA 2 mM, ATP 25 uM, relative to control at 500 uM ATP", "value": 0.133}, {"measurement": "In vitro mTORC1 assay, p-4E-BP1(T37/46)/4E-BP1, Mean", "setting": "[4]; Fig. 8j, Mal-CoA 2 mM, ATP 100 uM, relative to control at 500 uM ATP", "value": 0.267}, {"measurement": "In vitro mTORC1 assay, p-4E-BP1(T37/46)/4E-BP1, Mean", "setting": "[4]; Fig. 8j, Mal-CoA 2 mM, ATP 500 uM, relative to control at 500 uM ATP", "value": 0.681}, {"measurement": "In vitro mTORC1 assay, p-4E-BP1(T37/46)/4E-BP1, Mean", "setting": "[4]; Fig. 8j, Mal-CoA 2 mM, ATP 2000 uM, relative to control at 500 uM ATP", "value": 1.021}, {"measurement": "In vitro mTORC1 assay, p-4E-BP1(T37/46)/4E-BP1, Mean", "setting": "[4]; Fig. 8j, Mal-CoA 2 mM, ATP 5000 uM, relative to control at 500 uM ATP", "value": 1.149}, {"measurement": "Ki", "setting": "[4]; read-out: Ki (ATP-competitive, human mTORC1)", "value": 770, "unit": "µM"}]}
